According to ChEMBL document CHEMBL3804756 (J Med Chem, 2016):
Values belong to the compound of their own block, whether it stands above or below them.

Columns and labels:
Histamine H1 receptor = Histamine H1 receptor (Homo sapiens, UniProt P35367); assay: Displacement of [3H]mepyramine from human histamine H1 receptor expressed in sf9 cell membrane co-expressing RGS4 incubated for 60 mins by liquid scintillation counting method
Histamine H2 receptor [1] = molecular target: T1, Histamine H2 receptor (Homo sapiens, UniProt P25021); assay: Intrinsic activity at human histamine H2 receptor expressed in sf9 cell membrane co-expressing Gsalphas at 10 uM incubated for 90 mins by [35S]GTPgammaS binding assay relative to histamine; assay type: functional
T1 sequence (P25021 whole entry): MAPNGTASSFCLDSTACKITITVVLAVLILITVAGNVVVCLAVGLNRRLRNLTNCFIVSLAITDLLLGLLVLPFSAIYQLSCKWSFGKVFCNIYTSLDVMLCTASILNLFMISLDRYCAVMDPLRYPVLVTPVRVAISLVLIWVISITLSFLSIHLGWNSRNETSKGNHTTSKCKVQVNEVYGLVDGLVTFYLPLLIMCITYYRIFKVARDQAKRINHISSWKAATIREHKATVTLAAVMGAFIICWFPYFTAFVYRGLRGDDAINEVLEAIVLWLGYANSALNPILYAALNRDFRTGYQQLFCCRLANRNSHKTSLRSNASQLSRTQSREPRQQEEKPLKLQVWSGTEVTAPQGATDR

Histamine H3 receptor [2] = molecular target: T2, Histamine H3 receptor (Homo sapiens, UniProt Q9Y5N1); assay: Antagonist activity at human histamine H3 receptor expressed in sf9 cell membrane co-expressing mammalian Galphai2 and Gbeta1gamma2 assessed as inhibition of histamine-induced [35S]GTPgammaS binding incubated for 90 mins; assay type: functional
T2 sequence (Q9Y5N1 whole entry): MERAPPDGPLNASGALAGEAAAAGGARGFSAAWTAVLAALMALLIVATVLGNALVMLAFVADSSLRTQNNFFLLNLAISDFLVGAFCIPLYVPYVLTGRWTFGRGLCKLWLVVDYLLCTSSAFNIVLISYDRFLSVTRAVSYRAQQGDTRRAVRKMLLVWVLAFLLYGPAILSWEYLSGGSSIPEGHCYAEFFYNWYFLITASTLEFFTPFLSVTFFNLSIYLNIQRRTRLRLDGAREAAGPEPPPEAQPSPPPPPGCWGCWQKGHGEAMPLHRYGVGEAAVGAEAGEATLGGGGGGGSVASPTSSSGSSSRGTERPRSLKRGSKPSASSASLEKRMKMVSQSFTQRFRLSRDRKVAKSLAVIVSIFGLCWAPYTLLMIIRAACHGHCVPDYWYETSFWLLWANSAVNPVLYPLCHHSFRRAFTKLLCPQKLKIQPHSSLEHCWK

Histamine H3 receptor [3] = molecular target: T2, Histamine H3 receptor; assay: Intrinsic activity at human histamine H3 receptor expressed in sf9 cell membrane co-expressing mammalian Galphai2 and Gbeta1gamma2 at 10 uM incubated for 90 mins by [35S]GTPgammaS binding assay relative to histamine; assay type: functional
Histamine H4 receptor [4] = molecular target: T3, Histamine H4 receptor (Homo sapiens, UniProt Q9H3N8); assay: Agonist activity at human histamine H4 receptor expressed in sf9 cell membrane co-expressing mammalian Galphai2 and Gbeta1gamma2 incubated for 90 mins by [35S]GTPgammaS binding assay; assay type: functional
Histamine H2 receptor [5] = molecular target: T1, Histamine H2 receptor; assay: Agonist activity at human histamine H2 receptor expressed in sf9 cell membrane co-expressing Gsalphas incubated for 90 mins by [35S]GTPgammaS binding assay; assay type: functional
Histamine H3 receptor [6] = molecular target: T2, Histamine H3 receptor; assay: Displacement of [3H]N-alpha-methylhistamine from human histamine H3 receptor expressed in human SK-N-MC cells incubated for 40 mins; assay type: cell-based
Histamine H4 receptor [7] = molecular target: T3, Histamine H4 receptor; assay: biochemical; assay type: cell-based, SK-N-MC

Chain of Histamine H1 receptor (P35367 whole entry): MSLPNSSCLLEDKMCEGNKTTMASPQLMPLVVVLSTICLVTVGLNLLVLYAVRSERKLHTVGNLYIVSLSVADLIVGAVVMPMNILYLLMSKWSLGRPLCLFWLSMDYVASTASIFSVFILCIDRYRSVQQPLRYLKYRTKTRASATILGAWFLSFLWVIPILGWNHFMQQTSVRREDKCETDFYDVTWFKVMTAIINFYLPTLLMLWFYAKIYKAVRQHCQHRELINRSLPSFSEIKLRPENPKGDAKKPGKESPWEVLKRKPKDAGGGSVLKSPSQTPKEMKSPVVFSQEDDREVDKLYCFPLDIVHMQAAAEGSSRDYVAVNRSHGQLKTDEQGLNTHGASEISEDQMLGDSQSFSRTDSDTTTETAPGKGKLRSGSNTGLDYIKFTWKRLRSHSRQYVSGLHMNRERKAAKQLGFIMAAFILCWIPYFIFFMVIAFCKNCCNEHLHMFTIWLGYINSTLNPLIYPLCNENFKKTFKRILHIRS

Structure (SMILES): NC[C@H]1CC[C@H](c2c[nH]cn2)C1 (racemic)
Ki (Histamine H1 receptor): > 10000 nM
Intrinsic activity (Histamine H2 receptor [1]): 0
Kb (Histamine H3 receptor [2]): 103 nM
Intrinsic activity (Histamine H3 receptor [3]): 0
EC50 (Histamine H4 receptor [4]): 1710 nM
EC50 (Histamine H2 receptor [5]): > 10000 nM

Structure (SMILES): NC[C@@H]1CC[C@H](c2c[nH]cn2)C1 (racemic)
Ki (Histamine H1 receptor): > 10000 nM
Intrinsic activity (Histamine H2 receptor [1]): 0.19
Kb (Histamine H3 receptor [2]): 62 nM
Intrinsic activity (Histamine H3 receptor [3]): 0
EC50 (Histamine H4 receptor [4]): 150 nM
EC50 (Histamine H2 receptor [5]): > 10000 nM

Ki (Histamine H3 receptor [6]): 4.3 nM
Ki (Histamine H4 receptor [7]): 12.7 nM
Structure (SMILES): NCCCCc1c[nH]cn1 [IMBUTAMINE]
